Measurements published in patent US10076116B2, “N-cycloalkyl-N-(biheterocyclymethylene)-(thio)carboxamide derivatives” (BAYER CROPSCIENCE AKTIENGESELLSCHAFT, priority 2013, dated 2018).

How the values were obtained:
Alternaria brassicae = experiment: In vivo preventive test on Alternaria brassicae (leaf spot on radish); conditions: for Efficacy (Table A2) / Efficacy (Table A1): dose 500 ppm, radish, 6 days after inoculation
Protocol: Example A: In Vivo Preventive Test on Alternaria brassicae (Leaf Spot on Radish) Solvent: 5% by volume of Dimethyl sulfoxide • 10% by volume of Acetone Emulsifier: 1 μL of TWEEN® 80 (Polyoxyethylene (20) sorbitan monooleate) per mg of active ingredient The active ingredients are made soluble and homogenized in a mixture of Dimethyl sulfoxide/Acetone/TWEEN® 80 and then diluted in water to the desired concentration. The young plants of radish are treated by spraying the active ingredient prepared as described above. Control plants are treated only with an aqueous solution of Acetone/Dimethyl sulfoxide/TWEEN® 80. After 24 hours, the plants are contaminated by spraying the leaves with an aqueous suspension of Alternaria brassicae spores. The contaminated radish plants are incubated for 6 days at 20° C. and at 100% relative humidity. The test is evaluated 6 days after the inoculation. 0% means an efficacy which corresponds to that of the control plants while an efficacy of 100% means that no disease is observed.

Pyrenophora teres = experiment: In vivo preventive test on Pyrenophora teres (net blotch on barley); conditions: for efficacy: 500 ppm of active ingredient, barley plants, evaluated 14 days after inoculation; for Efficacy (Table D1): dose 500 ppm, barley
Protocol: Example D: In Vivo Preventive Test on Pvrenophora Teres (Net Blotch on Barley) Solvent: 5% by volume of Dimethyl sulfoxide • 10% by volume of Acetone Emulsifier: 1 μL of TWEEN® 80 per mg of active ingredient The active ingredients are made soluble and homogenized in a mixture of Dimethyl sulfoxide/Acetone/TWEEN® 80 and then diluted in water to the desired concentration. The young plants of barley are treated by spraying the active ingredient prepared as described above. Control plants are treated only with an aqueous solution of Acetone/Dimethyl sulfoxide/TWEEN® 80. After 24 hours, the plants are contaminated by spraying the leaves with an aqueous suspension of Pyrenophora teres spores. The contaminated barley plants are incubated for 48 hours at 20° C. and at 100% relative humidity and then for 12 days at 20° C. and at 70-80% relative humidity. The test is evaluated 14 days after the inoculation. 0% means an efficacy which corresponds to that of the control plants while an efficacy of 100% means that no disease is observed.

[1] = log P by HPLC on reversed-phase column (C 18), EEC Directive 79/831 Annex V.A8; type: physicochemical; conditions: HPLC C 18, 40° C., 0.1% aqueous formic acid and acetonitrile, gradient 10% to 90% acetonitrile
Protocol: In table 1, the log P values were determined in accordance with EEC Directive 79/831 Annex V.A8 by HPLC (High Performance Liquid Chromatography) on a reversed-phase column (C 18), using the method described below: Temperature: 40° C.; Mobile phases: 0.1% aqueous formic acid and acetonitrile; linear gradient from 10% acetonitrile to 90% acetonitrile. Calibration was carried out using unbranched alkan-2-ones (comprising 3 to 16 carbon atoms) with known log P values (determination of the log P values by the retention times using linear interpolation between two successive alkanones). lambda-max-values were determined using UV-spectra from 200 nm to 400 nm and the peak values of the chromatographic signals.

Row | logP [1] | Structure (SMILES) | Efficacy (Table A2) (Alternaria brassicae) [%] | efficacy (Pyrenophora teres) | Efficacy (Table D1) (Pyrenophora teres) [%] | Efficacy (Table A1) (Alternaria brassicae) [%] | also measured
1 | – | Cn1nc(C(F)F)c(C(=O)N(Cc2sc3ccccc3c2-c2cccnc2)C2CC2)c1F [CMP4, N-cyclopropyl-3-(difluoromethyl)-5-fluoro-1-methyl-N-{[3-(pyridin-3-yl)-1-benzothiophen-2-yl]methyl}-1H-pyrazole-4-carboxamide, reference compound] | 43 | – | – | – | –
2 | – | COc1cccc(-c2c(CN(C(=O)c3c(C(F)F)nn(C)c3F)C3CC3)sc3ccccc23)n1 [CMP5, N-cyclopropyl-3-(difluoromethyl)-5-fluoro-N-{[3-(6-methoxypyridin-2-yl)-1-benzothiophen-2-yl]methyl}-1-methyl-1H-pyrazole-4-carboxamide] | 0 | no protection | 0 | – | –
3 | – | Cn1nc(C(F)F)c(C(=O)N(Cc2sc3ccccc3c2-c2ccncc2)C2CC2)c1F [CMP6, N-cyclopropyl-3-(difluoromethyl)-5-fluoro-1-methyl-N-{[3-(pyridin-4-yl)-1-benzothiophen-2-yl]methyl}-1H-pyrazole-4-carboxamide] | – | no protection | 0 | – | –
4 | 4.16 | Cn1nc(C(F)F)c(C(=O)N(Cc2nn(-c3ccccc3)cc2-c2ccc3c(ccn3C)c2)C2CC2)c1F [I.01] | – | – | – | 71 | –
5 | 4.53 | Cn1nc(C(F)F)c(C(=O)N(Cc2nn(-c3ccccc3)cc2-c2csc3ccccc23)C2CC2)c1F [I.03] | – | – | – | 93 | –
6 | – | Cn1nc(C(F)F)c(C(=O)N(Cc2sc3ccccc3c2-c2coc3ccccc23)C2CC2)c1F [I.53, N-{[3-(1-benzofuran-3-yl)-1-benzothiophen-2-yl]methyl}-N-cyclopropyl-3-(difluoromethyl)-5-fluoro-1-methyl-1H-pyrazole-4-carboxamide] | 100 | – | 83 | – | efficacy (Alternaria brassicae; 500 ppm of active ingredient, radish plants sprayed 24 hours before inoculation, evaluated 6 days after inoculation, listed as 1.53): total protection; chromatographic logP ([1]; reversed-phase HPLC column (C 18)): 4.61
